From the NIST ThermoML archive (doi:10.1021/acs.jced.9b00442)

Assays:
[1] = 100 kPa, Liquid; for electrical conductivity: Frequency=0.0006 MHz, Alternating current cell with electrodes; for viscosity: Concentric cylinders viscometry; for mass density: Vibrating tube method
[2] = refractive index (Na D-line) (dimensionless); conditions: 100 kPa, Liquid, Standard Abbe refractometry

CCCC[N+](C)(C)CC.O=S(=O)([N-]S(=O)(=O)C(F)(F)F)C(F)(F)F
Conditions | electrical conductivity [S/m] | mass density [kg/m3] | refractive index | viscosity [mPa·s]
[1], 283.15 K | 0.082 | – | – | –
[1], 288.15 K | 0.11 | 1380.6 | – | 176.1
[1], 289.15 K | – | 1379.7 | – | –
[1], 290.15 K | – | 1378.8 | – | –
[1], 291.15 K | – | 1377.9 | – | –
[1], 292.15 K | – | 1377 | – | –
[1], 293.15 K | 0.143 | 1376.1 | – | 132.4
[1], 294.15 K | – | 1375.2 | – | –
[1], 295.15 K | – | 1374.3 | – | –
[1], 296.15 K | – | 1373.4 | – | –
[1], 297.15 K | – | 1372.5 | – | –
[1], 298.15 K | 0.182 | 1371.6 | – | 100.5
[1], 299.16 K | – | 1370.8 | – | –
[1], 300.16 K | – | 1369.9 | – | –
[1], 301.15 K | – | 1369 | – | –
[1], 302.15 K | – | 1368.1 | – | –
[1], 303.15 K | 0.228 | 1367.2 | – | 78.4
[1], 304.15 K | – | 1366.3 | – | –
[1], 305.15 K | – | 1365.4 | – | –
[1], 306.15 K | – | 1364.6 | – | –
[1], 307.15 K | – | 1363.7 | – | –
[1], 308.15 K | 0.279 | 1362.8 | – | 62.3
[1], 309.15 K | – | 1361.9 | – | –
[1], 310.15 K | – | 1361.1 | – | –
[1], 311.15 K | – | 1360.2 | – | –
[1], 312.15 K | – | 1359.3 | – | –
[1], 313.15 K | 0.337 | 1358.4 | – | 50.9
[1], 314.15 K | – | 1357.6 | – | –
[1], 315.15 K | – | 1356.7 | – | –
[1], 316.15 K | – | 1355.8 | – | –
[1], 317.15 K | – | 1355 | – | –
[1], 318.15 K | 0.401 | 1354.1 | – | 41.2
[1], 319.15 K | – | 1353.2 | – | –
[1], 320.15 K | – | 1352.3 | – | –
[1], 321.15 K | – | 1351.5 | – | –
[1], 322.15 K | – | 1350.6 | – | –
[1], 323.15 K | 0.473 | 1349.7 | – | 34.2
[1], 324.15 K | – | 1348.9 | – | –
[1], 325.15 K | – | 1348 | – | –
[1], 326.15 K | – | 1347.2 | – | –
[1], 327.15 K | – | 1346.3 | – | –
[1], 328.15 K | – | 1345.5 | – | 28.8
[1], 329.15 K | – | 1344.6 | – | –
[1], 330.15 K | – | 1343.7 | – | –
[1], 331.15 K | – | 1342.9 | – | –
[1], 332.15 K | – | 1342 | – | –
[1], 333.15 K | – | 1341.2 | – | 24.8
[1], 334.15 K | – | 1340.3 | – | –
[1], 335.16 K | – | 1339.5 | – | –
[1], 336.15 K | – | 1338.6 | – | –
[1], 337.15 K | – | 1337.8 | – | –
[1], 338.15 K | – | 1336.9 | – | 21
[1], 339.15 K | – | 1336 | – | –
[1], 340.15 K | – | 1335.2 | – | –
[1], 341.15 K | – | 1334.3 | – | –
[1], 342.15 K | – | 1333.5 | – | –
[1], 343.15 K | – | 1332.6 | – | 18.2
[1], 344.15 K | – | 1331.8 | – | –
[1], 345.15 K | – | 1330.9 | – | –
[1], 346.15 K | – | 1330.1 | – | –
[1], 347.15 K | – | 1329.2 | – | –
[1], 348.15 K | – | 1328.4 | – | 15.9
[1], 349.15 K | – | 1327.5 | – | –
[1], 350.15 K | – | 1326.7 | – | –
[1], 351.15 K | – | 1325.9 | – | –
[1], 352.15 K | – | 1325 | – | –
[1], 353.15 K | – | 1324.2 | – | 14.2
[1], 354.15 K | – | 1323.3 | – | –
[1], 355.15 K | – | 1322.5 | – | –
[1], 356.15 K | – | 1321.6 | – | –
[1], 357.15 K | – | 1320.8 | – | –
[1], 358.15 K | – | 1319.9 | – | 12.4
[1], 359.15 K | – | 1319.1 | – | –
[1], 360.15 K | – | 1318.3 | – | –
[1], 361.15 K | – | 1317.4 | – | –
[1], 362.16 K | – | 1316.6 | – | –
[1], 363.15 K | – | 1315.7 | – | 11
[2], 283.15 K | – | – | 1.4174 | –
[2], 288.15 K | – | – | 1.416 | –
[2], 293.15 K | – | – | 1.4147 | –
[2], 298.15 K | – | – | 1.4133 | –
[2], 303.15 K | – | – | 1.412 | –
[2], 308.15 K | – | – | 1.4106 | –
[2], 313.15 K | – | – | 1.4092 | –
[2], 318.15 K | – | – | 1.4078 | –
[2], 323.15 K | – | – | 1.4064 | –
[2], 328.15 K | – | – | 1.4051 | –
[2], 333.15 K | – | – | 1.4038 | –
[2], 338.15 K | – | – | 1.4024 | –
[2], 343.15 K | – | – | 1.4012 | –
[2], 348.15 K | – | – | 1.3998 | –
[2], 353.15 K | – | – | 1.3985 | –
[2], 358.15 K | – | – | 1.3973 | –

CC[N+](C)(C)CCOC.O=S(=O)([N-]S(=O)(=O)C(F)(F)F)C(F)(F)F
Conditions | electrical conductivity [S/m] | mass density [kg/m3] | refractive index | viscosity [mPa·s]
[1], 283.15 K | 0.141 | – | – | –
[1], 288.15 K | 0.182 | 1440.5 | – | 100.4
[1], 289.15 K | – | 1439.5 | – | –
[1], 290.15 K | – | 1438.6 | – | –
[1], 291.15 K | – | 1437.6 | – | –
[1], 292.15 K | – | 1436.7 | – | –
[1], 293.15 K | 0.23 | 1435.7 | – | 78.3
[1], 294.15 K | – | 1434.8 | – | –
[1], 295.15 K | – | 1433.8 | – | –
[1], 296.15 K | – | 1432.8 | – | –
[1], 297.15 K | – | 1431.9 | – | –
[1], 298.15 K | 0.285 | 1431 | – | 61.5
[1], 299.16 K | – | 1430 | – | –
[1], 300.16 K | – | 1429.1 | – | –
[1], 301.15 K | – | 1428.1 | – | –
[1], 302.15 K | – | 1427.2 | – | –
[1], 303.15 K | 0.347 | 1426.2 | – | 49.5
[1], 304.15 K | – | 1425.3 | – | –
[1], 305.15 K | – | 1424.4 | – | –
[1], 306.15 K | – | 1423.4 | – | –
[1], 307.15 K | – | 1422.5 | – | –
[1], 308.15 K | 0.415 | 1421.6 | – | 40.5
[1], 309.15 K | – | 1420.6 | – | –
[1], 310.15 K | – | 1419.7 | – | –
[1], 311.15 K | – | 1418.8 | – | –
[1], 312.15 K | – | 1417.8 | – | –
[1], 313.15 K | 0.489 | 1416.9 | – | 33.9
[1], 314.15 K | – | 1416 | – | –
[1], 315.15 K | – | 1415.1 | – | –
[1], 316.15 K | – | 1414.1 | – | –
[1], 317.15 K | – | 1413.2 | – | –
[1], 318.15 K | 0.57 | 1412.3 | – | 28.2
[1], 319.15 K | – | 1411.4 | – | –
[1], 320.15 K | – | 1410.4 | – | –
[1], 321.15 K | – | 1409.5 | – | –
[1], 322.15 K | – | 1408.6 | – | –
[1], 323.15 K | 0.659 | 1407.7 | – | 24
[1], 324.15 K | – | 1406.8 | – | –
[1], 325.15 K | – | 1405.9 | – | –
[1], 326.15 K | – | 1404.9 | – | –
[1], 327.15 K | – | 1404 | – | –
[1], 328.15 K | – | 1403.1 | – | 20.6
[1], 329.15 K | – | 1402.2 | – | –
[1], 330.15 K | – | 1401.3 | – | –
[1], 331.15 K | – | 1400.4 | – | –
[1], 332.15 K | – | 1399.4 | – | –
[1], 333.15 K | – | 1398.5 | – | 18
[1], 334.15 K | – | 1397.6 | – | –
[1], 335.16 K | – | 1396.7 | – | –
[1], 336.15 K | – | 1395.8 | – | –
[1], 337.15 K | – | 1394.9 | – | –
[1], 338.15 K | – | 1394 | – | 15.6
[1], 339.15 K | – | 1393.1 | – | –
[1], 340.15 K | – | 1392.2 | – | –
[1], 341.15 K | – | 1391.3 | – | –
[1], 342.15 K | – | 1390.4 | – | –
[1], 343.15 K | – | 1389.5 | – | 13.7
[1], 344.15 K | – | 1388.6 | – | –
[1], 345.15 K | – | 1387.7 | – | –
[1], 346.15 K | – | 1386.7 | – | –
[1], 347.15 K | – | 1385.8 | – | –
[1], 348.15 K | – | 1384.9 | – | 12.2
[1], 349.15 K | – | 1384 | – | –
[1], 350.15 K | – | 1383.1 | – | –
[1], 351.15 K | – | 1382.2 | – | –
[1], 352.15 K | – | 1381.3 | – | –
[1], 353.15 K | – | 1380.4 | – | 11
[1], 354.15 K | – | 1379.5 | – | –
[1], 355.15 K | – | 1378.6 | – | –
[1], 356.15 K | – | 1377.7 | – | –
[1], 357.15 K | – | 1376.9 | – | –
[1], 358.15 K | – | 1376 | – | 9.7
[1], 359.15 K | – | 1375.1 | – | –
[1], 360.15 K | – | 1374.2 | – | –
[1], 361.15 K | – | 1373.3 | – | –
[1], 362.16 K | – | 1372.4 | – | –
[1], 363.15 K | – | 1371.5 | – | 8.8
[2], 283.15 K | – | – | 1.4164 | –
[2], 288.15 K | – | – | 1.415 | –
[2], 293.15 K | – | – | 1.4136 | –
[2], 298.15 K | – | – | 1.4121 | –
[2], 303.15 K | – | – | 1.4107 | –
[2], 308.15 K | – | – | 1.4092 | –
[2], 313.15 K | – | – | 1.4078 | –
[2], 318.15 K | – | – | 1.4065 | –
[2], 323.15 K | – | – | 1.4051 | –
[2], 328.15 K | – | – | 1.4037 | –
[2], 333.15 K | – | – | 1.4024 | –
[2], 338.15 K | – | – | 1.4011 | –
[2], 343.15 K | – | – | 1.3998 | –
[2], 348.15 K | – | – | 1.3985 | –
[2], 353.15 K | – | – | 1.3972 | –
[2], 358.15 K | – | – | 1.3959 | –
